Test results from patent US20250154686A1, “COMPOUND LIBRARY” (CHUGAI SEIYAKU KABUSHIKI KAISHA, priority 2021, published 2025).

Target: T1, Bcl-2 protein (Recombinant Human Bcl-2 Protein) (Homo sapiens, UniProt P10415)
T1 construct: purchased Novus Biologicals NBP2-34889
Assay: AS-MS evaluation of binding of the Example 4 mixture library (1200 compounds/well) to Bcl-2, ASMS ratio (%)
Settings: Bcl-2 protein; for ASMS ratio (%) n = 1: replicate n = 1; for ASMS ratio (%) n = 2: replicate n = 2
Protocol: DMSO solutions (prepared into approximately 0.58 mM based on calculation from the average molecular weight of each mixture) of 12 types of mixtures that could each contain 100 compounds, i.e., mixAI-B4J-01, mixAI-B1M-01, mixAI-B1K-01, mixAI-BIO-01, mixAI-B1A-01, mixAI-B3A-01, mixAI-B21-01, mixAI-B2L-01, mixAI-B2N-01, mixAI-B2A-01, mixAI-B2Q-01, and mixAI-B2R-01, shown in Table AI-03-B4J-01, Table AI-03-B1M-01, Table AI-03-B1K-01, Table AI-03-B10-01, Table AI-03-B1A-01, Table AI-03-B3A-01, Table AI-03-B21-01, Table AI-03-B2L-01, Table AI-03-B2N-01, Table AI-03-B2A-01, Table AI-03-B2Q-01, and Table AI-03-B2R-01 described in Example 4, were respectively dispensed to a total of 12 wells of MICROPLATE, 96-well, PP, V-BOTTOM (Greiner Bio-One International GmbH, 651201). 70 nL each from the 12 wells was collected into any one well using LABCYTE ECHO® 555 acoustic dispensing system (Beckman Coulter, Inc.) to prepare a sample solution in a mixed state of 1200 compounds (the presence of 1152 compounds was already identified when the mixtures were prepared in Example 4). Further, Bcl-2 protein (Novus Biologicals, NBP2-34889, Recombinant Human Bcl-2 Protein, Lot E60145051) (19.2 μL) prepared at 20.9 μM in advance using a Tris-HCl buffer (25 mM Tris-HCl, pH 7.4, 150 mM NaCl, 0.025% Tween-20, and 1 mM DTT) was added to the well containing the dispensed 1200 compounds (the presence of 1152 compounds was already identified when the mixtures were prepared in Example 4) (final compound concentration: 20 nM, final Bcl-2 concentration: 20 μM), and the plate was incubated at 23° C. for 1 hour in the dark. Subsequently, 200 μL of an assay buffer (25 mM Tris-HCl, pH 7.4, 150 mM NaCl, 0.025% Tween-20, and 1 mM DTT) was centrifuged three times at 2000×G at 4° C. for 2 minutes using 96-well MacroSpin column, P-2 Material (Harvard Bioscience, Inc., 74-5655) that had been allowed to swell to condition the 96-well MacroSpin column. Subsequently, 20 μL of the sample thus incubated was added to the 96-well MacroSpin column, P-2 Material after the completion of conditioning, and SEC treatment was performed by centrifugation at 2000×G for 2 minutes. 32 μL of a 1:1 mixed solution of acetonitrile and methanol (LC/MS grade, FUJIFILM Wako Pure Chemical Corp.) was added to a flow-through liquid from SEC, and the mixture was centrifuged at 1800×G at 4° C. for 5 minutes. The supernatant was used as analysis sample ASMS (A). By a similar operation, a sample prepared at 1200 compounds/well and supplemented with only a Tris-HCl buffer containing no Bcl-2 protein was incubated under the same conditions as above, and the same organic solvent as above was added thereto without 96-well MacroSpin column treatment. A supernatant obtained by a centrifugation operation was used as STD (B). Next, by a similar operation, a sample prepared at 1200 compounds/well and supplemented with only a Tris-HCl buffer containing no Bcl-2 protein was incubated under the same conditions as above and treated with 96-well MacroSpin column in the same manner as above, and the same organic solvent as above was added thereto. A supernatant obtained by a centrifugation operation was used as BK (C). These samples were measured by reverse-phase LC/MS.
Then, the samples A, B and C were analyzed for the 1200 compounds using TraceFinder 5.1 (Thermo Fisher Scientific Inc.) and CHANCE Software (in-house), and an ASMS ratio (%) was calculated according to the following expression.
Although m/z of the MS peaks was confirmed down to four decimal places, 0 at the decimal level may be omitted in the description in Table AJ-01. For example, “587.0000” is also referred to as “587”, “587.1000” is also referred to as “587.1”, “587.1200” is also referred to as “587.12”, and “587.1230” is also referred to as “587.123”.

[1] = AS-MS, mixture of 1200 compounds/well
[2] = mixture library of 1200 compounds/well, compounds assigned by expected m/z

T1 sequence (P10415 whole entry): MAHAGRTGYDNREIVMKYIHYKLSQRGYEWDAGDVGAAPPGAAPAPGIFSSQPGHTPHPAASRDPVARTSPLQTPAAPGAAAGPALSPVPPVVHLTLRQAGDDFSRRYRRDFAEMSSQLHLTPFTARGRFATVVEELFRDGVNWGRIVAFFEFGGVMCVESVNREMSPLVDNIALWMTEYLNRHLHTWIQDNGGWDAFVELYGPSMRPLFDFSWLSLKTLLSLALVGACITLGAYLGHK

| Compound | ASMS ratio (%) n = 1 [1] [%] | ASMS ratio (%) n = 2 [1] [%] | ASMS ratio (%) n = 2 [2] [%] |
| --- | --- | --- | --- |
| 4-[4-[[2-[2-(3-Ethoxyphenyl)ethynyl]phenyl]methyl]piperazin-1-yl]-N-propylbenzamide [Compound B1M052-01] | 27.6 | 20.2 |  |
| 4-[4-[[4-(3-Ethoxyphenyl)-3-fluorophenyl]methyl]piperazin-1-yl]-N-propylbenzamide [Compound B1M079-01] | 8.1 |  |  |
| 4-[4-[[4-(3-Ethoxyphenyl)-3-methylphenyl]methyl]piperazin-1-yl]-N-propylbenzamide [Compound B1M058-01] | −1.4 |  |  |
| 4-[4-[[4-(5-Ethoxypyridin-3-yl)-2-ethylphenyl]methyl]piperazin-1-yl]-N-propylbenzamide [Compound B1M075-01] | 77.3 | 46.1 |  |
| 6-[4-[[2-(5-Ethoxypyridin-3-yl)phenyl]methyl]piperazin-1-yl]-N-propylpyridazine-3-carboxamide [Compound B1M043-01] | 2.2 |  |  |
| CCOc1cncc(-c2cc(C(=O)N3CCN(c4ccc(C(=O)NCC56CC7CC(CC(C7)C5)C6)nn4)CC3)cc(C(C)(C)C)c2)c1 [Compound B1A016-01, N-(1-Adamantylmethyl)-6-[4-[3-tert-butyl-5-(5-ethoxypyridin-3-yl)benzoyl]piperazin-1-yl]pyridazine-3-carboxamide] |  |  | −4. |
| CCOc1cccc(-c2cc(CN3CCN(c4ccc(C(=O)NCC56CC7CC(CC(C7)C5)C6)nn4)CC3)cc(OCC)c2)c1 [Compound B1A081-01, N-(1-Adamantylmethyl)-6-[4-[[3-ethoxy-5-(3-ethoxyphenyl)phenyl]methyl]piperazin-1-yl]pyridazine-3-carboxamide] |  |  | −5. |
| CCOc1cccc(-c2cc(CN3CCN(c4ccc(C(=O)NCC(F)(F)F)cc4)CC3)cc(OC(F)(F)F)c2)c1 [Compound B1K063-01, 4-[4-[[3-(3-Ethoxyphenyl)-5-(trifluoromethoxy)phenyl]methyl]piperazin-1-yl]-N-(2,2,2-trifluoroethyl)benzamide] | 3.9 | 0.4 |  |
| CCCNC(=O)c1ccc(N2CCN(C(=O)c3ccc(-c4cccc(OCC)c4)c(C)c3)CC2)nn1 [Compound B1M003-01] | −1.9 | 2.0 |  |
| CCCNC(=O)c1ccc(N2CCN(C(=O)c3ccc(-c4cncc(OCC)c4)c(C)c3)CC2)nn1 [Compound B1M004-01] | 0.0 | 0.0 |  |
| CCCNC(=O)c1ccc(N2CCN(C(=O)c3ccc(-c4cncc(OCC)c4)c(F)c3)CC2)nn1 [Compound B1M006-01] | 0.0 | 0.0 |  |
| CCCNC(=O)c1ccc(N2CCN(C(=O)c3ccccc3C#Cc3cccc(OCC)c3)CC2)nn1 [Compound B1M007-01] | 0.3 | 0.3 |  |
| CCCNC(=O)c1ccc(N2CCN(C(=O)c3ccccc3C#Cc3cncc(OCC)c3)CC2)nn1 [Compound B1M008-01] |  | 0.0 |  |
| CCCNC(=O)c1ccc(N2CCN(C(=O)c3cncc(C#Cc4cccc(OCC)c4)c3)CC2)nn1 [Compound B1M009-01] |  | 0.0 |  |
| CCCNC(=O)c1ccc(N2CCN(C(=O)c3cncc(C#Cc4cncc(OCC)c4)c3)CC2)nn1 [Compound B1M010-01] | 0.0 | 0.0 |  |
| CCCNC(=O)c1ccc(N2CCN(C(=O)CCc3ccccc3-c3cccc(OCC)c3)CC2)nn1 [Compound B1M011-01] | 18.6 | 7.5 |  |

| Compound | ASMS ratio (%) n = 1 [1] [%] | ASMS ratio (%) n = 2 [1] [%] | ASMS ratio (%) n = 2 [2] [%] |
| --- | --- | --- | --- |
| CCCNC(=O)c1ccc(N2CCN(Cc3cc(OCC)cc(-c4cncc(OCC)c4)c3)CC2)nn1 [Compound B1M012-01, 6-[4-[[3-Ethoxy-5-(5-ethoxypyridin-3-yl)phenyl]methyl]piperazin-1-yl]-N-propylpyridazine-3-carboxamide] | −3.5 | −2.3 |  |
| CCCNC(=O)c1ccc(N2CCN(C(=O)c3ccc(-c4cccc(OCC)c4)c4ccccc34)CC2)nn1 [Compound B1M013-01] | 2.9 | −1.1 |  |
| CCCNC(=O)c1ccc(N2CCN(C(=O)c3ccc(-c4cncc(OCC)c4)c4ccccc34)CC2)nn1 [Compound B1M014-01] | 4.1 | 0.4 |  |
| CCCNC(=O)c1ccc(N2CCN(C(=O)c3cc(-c4cccc(OCC)c4)cc(C(C)(C)C)c3)CC2)nn1 [Compound B1M015-01] | −2.4 | −3.0 |  |
| CCCNC(=O)c1ccc(N2CCN(C(=O)c3cc(-c4cncc(OCC)c4)cc(C(C)(C)C)c3)CC2)nn1 [Compound B1M016-01] | 0.0 | 0.0 |  |
| CCCNC(=O)c1ccc(N2CCN(C(=O)c3cc(-c4cccc(OCC)c4)cc(C(F)(F)F)c3)CC2)nn1 [Compound B1M017-01] | −0.1 | 0.3 |  |
| CCCNC(=O)c1ccc(N2CCN(C(=O)c3cc(-c4cncc(OCC)c4)cc(C(F)(F)F)c3)CC2)nn1 [Compound B1M018-01] | 0.0 | 0.0 |  |
| CCCNC(=O)c1ccc(N2CCN(C(=O)c3cc(C#Cc4cccc(OCC)c4)cc(C(F)(F)F)c3)CC2)nn1 [Compound B1M019-01] | 1.5 | 0.0 |  |
| CCCNC(=O)c1ccc(N2CCN(C(=O)c3cc(C#Cc4cncc(OCC)c4)cc(C(F)(F)F)c3)CC2)nn1 [Compound B1M020-01] | 0.0 | 0.0 |  |
| CCCNC(=O)c1ccc(N2CCN(C(=O)c3cc(-n4cc(-c5cccc(OCC)c5)cn4)cc(C(F)(F)F)c3)CC2)nn1 [Compound B1M021-01] | 0.0 | 0.0 |  |
| CCCNC(=O)c1ccc(N2CCN(C(=O)c3cc(-n4cc(-c5cncc(OCC)c5)cn4)cc(C(F)(F)F)c3)CC2)nn1 [Compound B1M022-01] | −13.6 | 6.7 |  |
| CCCNC(=O)c1ccc(N2CCN(C(=O)c3cc(-c4cccc(OCC)c4)cs3)CC2)cc1 [Compound B1M023-01] | 1.4 | −3.0 |  |
| CCCNC(=O)c1ccc(N2CCN(C(=O)c3cc(-c4cncc(OCC)c4)cs3)CC2)cc1 [Compound B1M024-01] | 0.0 | 0.0 |  |
| CCCNC(=O)c1ccc(N2CCN(C(=O)c3ccc(-c4cccc(OCC)c4)c(C)c3)CC2)cc1 [Compound B1M025-01] | 3.6 | −1.2 |  |
| CCCNC(=O)c1ccc(N2CCN(C(=O)c3ccc(-c4cncc(OCC)c4)c(C)c3)CC2)cc1 [Compound B1M026-01] | 0.9 | 0.9 |  |
| CCCNC(=O)c1ccc(N2CCN(C(=O)c3ccc(-c4cccc(OCC)c4)c(F)c3)CC2)cc1 [Compound B1M027-01] | 1.0 | 0.4 |  |
